This note sets out measurements from PubChem BioAssay (NCI).

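1) Cells in 96-well plates. 2) Compound, 48 h, 5 concentrations. 3) Linear interpolation between surrounding doses. 4) Unreached endpoint = highest concentration. Definition used: TGI = concentration required for complete inhibition of growth.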

In one assay the test system is SK-OV-3 ovarian. In words: NCI-60 cell line screen, 48 h.
For `CC1=C(O)C(=O)[C@@H]2O[C@@H]2C1=O`, the TGI was 107 µM.
On the same count and under the same terms, next, `COc1ccc(-c2cc(-c3ccco3)c(C#N)c(=S)n2C2OC(COC(C)=O)C(OC(C)=O)C(OC(C)=O)C2OC(C)=O)cc1` (centres undefined): 26.8 µM; `COc1cc(/C=C2/C(=O)N(C(=O)c3ccccc3O)N=C2C)cc(OC)c1OC`: above 100 µM.
Still for that read-out and setting: next, `CCCCCCCCCCCCCCCCCCNc1ccn(C2OC(COP(=O)(O)OCC3OC(n4ccc(NC(=O)CCCCCCCCCCCCCCCCC)nc4=O)C(OC(C)=O)C3OC(C)=O)C(OC(C)=O)C2OC(C)=O)c(=O)n1` (centres undefined): above 100 µM; `COc1cccc(-c2cc(=O)c3ccccc3o2)c1N`: above 100 µM.
As to `Cc1ccc(-c2c(C#N)c(-c3ccccc3)n(NS(=O)(=O)c3ccccc3)c(=O)c2C#N)cc1`, the TGI was above 100 µM.
On the same count and under the same terms, in the case of `COc1ccc(N2C(=O)C3c4[nH]c5ccc(OCc6ccccc6)cc5c4C4CCC(C(C)(C)C)CC4C3C2=O)cc1` (centres undefined) it was above 100 µM; in that of `COc1ccc(C(C#N)NNC(=O)c2ccccc2O)cc1OC` (centres undefined), above 100 µM; in that of `O=c1[nH]n2c(=O)cc[nH]c2c1-c1nnns1`, above 100 µM.
Still for that read-out and setting: next, `Cc1c(-c2nc3ccccc3[nH]2)c(=O)n(-c2ccccc2)n1C`: above 100 µM.
Turning to `CC(CN1c2ccccc2Sc2ccccc21)N(C)C` (centres undefined), the TGI was found to be 32.6 µM.
On the same count and under the same terms, in the case of `N.N.N.O=[N+]([O-])[O-].O=[N+]([O-])[O-].O=[N+]([O-])[O-].O=[N+]([O-])[O-].[Co+3]` it was above 100 µM; in that of `COc1cc(O)c(/C=N/N=C(\N)NO)c(OC)c1`, above 10 µM.
The same measure, in the same setting: next, `CCCCN1C(=O)CC2[C@@H]3CCc4cc(OC(C)=O)ccc4C3CC[C@]2(C)C1=O` (some centres undefined): above 10 µM.

The next assay relates to NCI-H460 lung. In words: NCI-60 cell line screen, 48 h.
`CCOC(=O)C1Cc2[nH]c3ccccc3c2C(C)C1C` (centres undefined) gave a TGI of 33.2 µM.
As to `Cn1cc2ccccc2c1-c1nc(N)nc(F)n1`, the TGI is above 100 µM.
The same measure, in the same setting: in the case of `O=C1C(Cl)=C(N2CCN(C3=C(Cl)C(=O)c4ccccc4C3=O)CC2)C(=O)c2ccccc21` it was 13.6 µM; in that of `CC1=C(O)C(=O)[C@@H]2O[C@@H]2C1=O`, 47.4 µM.
On the same count and under the same terms, in the case of `COc1ccc(-c2cc(-c3ccco3)c(C#N)c(=S)n2C2OC(COC(C)=O)C(OC(C)=O)C(OC(C)=O)C2OC(C)=O)cc1` (centres undefined) it was 52 µM; in that of `COc1cc(/C=C2/C(=O)N(C(=O)c3ccccc3O)N=C2C)cc(OC)c1OC`, above 100 µM.
Take `CCCCCCCCCCCCCCCCCCNc1ccn(C2OC(COP(=O)(O)OCC3OC(n4ccc(NC(=O)CCCCCCCCCCCCCCCCC)nc4=O)C(OC(C)=O)C3OC(C)=O)C(OC(C)=O)C2OC(C)=O)c(=O)n1` (centres undefined): the TGI is above 100 µM.
For the molecule `COc1cccc(-c2cc(=O)c3ccccc3o2)c1N`, the TGI was above 100 µM.
Still for that read-out and setting: in the case of `Cc1ccc(-c2c(C#N)c(-c3ccccc3)n(NS(=O)(=O)c3ccccc3)c(=O)c2C#N)cc1` it was above 100 µM; in that of `COc1ccc(N2C(=O)C3c4[nH]c5ccc(OCc6ccccc6)cc5c4C4CCC(C(C)(C)C)CC4C3C2=O)cc1` (centres undefined), above 100 µM.
`COc1ccc(C(C#N)NNC(=O)c2ccccc2O)cc1OC` (centres undefined) yielded a TGI above 100 µM.
`O=c1[nH]n2c(=O)cc[nH]c2c1-c1nnns1` had a TGI above 100 µM.
The same measure, in the same setting: next, `Cc1c(-c2nc3ccccc3[nH]2)c(=O)n(-c2ccccc2)n1C`: above 100 µM; `CC(CN1c2ccccc2Sc2ccccc21)N(C)C` (centres undefined): 36 µM; `N.N.N.O=[N+]([O-])[O-].O=[N+]([O-])[O-].O=[N+]([O-])[O-].O=[N+]([O-])[O-].[Co+3]`: above 100 µM.
In turn, `COc1cc(O)c(/C=N/N=C(\N)NO)c(OC)c1` registered a TGI above 10 µM.
As for `CCCCN1C(=O)CC2[C@@H]3CCc4cc(OC(C)=O)ccc4C3CC[C@]2(C)C1=O` (some centres undefined), the TGI is above 10 µM.

The next assay has as its system LOX IMVI melanoma. Description: NCI-60 cell line screen, 48 h.
For the molecule `CCOC(=O)C1Cc2[nH]c3ccccc3c2C(C)C1C` (centres undefined), the TGI was found to be 28.2 µM.
As for `Cn1cc2ccccc2c1-c1nc(N)nc(F)n1`, the TGI was above 100 µM.
As to `O=C1C(Cl)=C(N2CCN(C3=C(Cl)C(=O)c4ccccc4C3=O)CC2)C(=O)c2ccccc21`, the TGI was 3.12 µM.
Take `CC1=C(O)C(=O)[C@@H]2O[C@@H]2C1=O`: the TGI is 26.8 µM.
For `COc1ccc(-c2cc(-c3ccco3)c(C#N)c(=S)n2C2OC(COC(C)=O)C(OC(C)=O)C(OC(C)=O)C2OC(C)=O)cc1` (centres undefined), the TGI is 15.1 µM.
Take `COc1cc(/C=C2/C(=O)N(C(=O)c3ccccc3O)N=C2C)cc(OC)c1OC`: the TGI is above 100 µM.
Still for that read-out and setting: next, `CCCCCCCCCCCCCCCCCCNc1ccn(C2OC(COP(=O)(O)OCC3OC(n4ccc(NC(=O)CCCCCCCCCCCCCCCCC)nc4=O)C(OC(C)=O)C3OC(C)=O)C(OC(C)=O)C2OC(C)=O)c(=O)n1` (centres undefined): above 100 µM; `COc1cccc(-c2cc(=O)c3ccccc3o2)c1N`: above 100 µM.
`Cc1ccc(-c2c(C#N)c(-c3ccccc3)n(NS(=O)(=O)c3ccccc3)c(=O)c2C#N)cc1` yielded a TGI above 100 µM.
On the same count and under the same terms, in the case of `COc1ccc(N2C(=O)C3c4[nH]c5ccc(OCc6ccccc6)cc5c4C4CCC(C(C)(C)C)CC4C3C2=O)cc1` (centres undefined) it was above 100 µM.
Still for that read-out and setting: next, `COc1ccc(C(C#N)NNC(=O)c2ccccc2O)cc1OC` (centres undefined): 59.3 µM; `O=c1[nH]n2c(=O)cc[nH]c2c1-c1nnns1`: above 100 µM; `Cc1c(-c2nc3ccccc3[nH]2)c(=O)n(-c2ccccc2)n1C`: above 100 µM.
On the same count and under the same terms, in the case of `CC(CN1c2ccccc2Sc2ccccc21)N(C)C` (centres undefined) it was 35.9 µM; in that of `N.N.N.O=[N+]([O-])[O-].O=[N+]([O-])[O-].O=[N+]([O-])[O-].O=[N+]([O-])[O-].[Co+3]`, above 100 µM; in that of `COc1cc(O)c(/C=N/N=C(\N)NO)c(OC)c1`, above 10 µM.
`CCCCN1C(=O)CC2[C@@H]3CCc4cc(OC(C)=O)ccc4C3CC[C@]2(C)C1=O` (some centres undefined) showed a TGI above 10 µM.

A further assay deals with UACC-62 melanoma. Description: NCI-60 cell line screen, 48 h.
`CCOC(=O)C1Cc2[nH]c3ccccc3c2C(C)C1C` (centres undefined) displayed a TGI of 22.7 µM.
Molecule `O=C1C(Cl)=C(N2CCN(C3=C(Cl)C(=O)c4ccccc4C3=O)CC2)C(=O)c2ccccc21` came in with a TGI of 3.29 µM.
Same read-out and setting: next, `CC1=C(O)C(=O)[C@@H]2O[C@@H]2C1=O`: 21.7 µM.
Molecule `COc1ccc(-c2cc(-c3ccco3)c(C#N)c(=S)n2C2OC(COC(C)=O)C(OC(C)=O)C(OC(C)=O)C2OC(C)=O)cc1` (centres undefined) displayed a TGI of 14.4 µM.
As to `COc1cc(/C=C2/C(=O)N(C(=O)c3ccccc3O)N=C2C)cc(OC)c1OC`, the TGI is 16.9 µM.
For `CCCCCCCCCCCCCCCCCCNc1ccn(C2OC(COP(=O)(O)OCC3OC(n4ccc(NC(=O)CCCCCCCCCCCCCCCCC)nc4=O)C(OC(C)=O)C3OC(C)=O)C(OC(C)=O)C2OC(C)=O)c(=O)n1` (centres undefined), the TGI is above 100 µM.
In turn, `COc1cccc(-c2cc(=O)c3ccccc3o2)c1N` gave a TGI above 100 µM.
`Cc1ccc(-c2c(C#N)c(-c3ccccc3)n(NS(=O)(=O)c3ccccc3)c(=O)c2C#N)cc1` returned a TGI above 100 µM.
On the same count and under the same terms, next, `COc1ccc(N2C(=O)C3c4[nH]c5ccc(OCc6ccccc6)cc5c4C4CCC(C(C)(C)C)CC4C3C2=O)cc1` (centres undefined): above 100 µM; `COc1ccc(C(C#N)NNC(=O)c2ccccc2O)cc1OC` (centres undefined): 0.908 µM; `Cc1c(-c2nc3ccccc3[nH]2)c(=O)n(-c2ccccc2)n1C`: above 100 µM.
`CC(CN1c2ccccc2Sc2ccccc21)N(C)C` (centres undefined) returned a TGI of 33.9 µM.
The same measure, in the same setting: next, `N.N.N.O=[N+]([O-])[O-].O=[N+]([O-])[O-].O=[N+]([O-])[O-].O=[N+]([O-])[O-].[Co+3]`: above 100 µM; `COc1cc(O)c(/C=N/N=C(\N)NO)c(OC)c1`: above 10 µM; `CCCCN1C(=O)CC2[C@@H]3CCc4cc(OC(C)=O)ccc4C3CC[C@]2(C)C1=O` (some centres undefined): above 10 µM.

For a further assay, the system named is M14 melanoma. Description: NCI-60 cell line screen, 48 h.
On to `CCOC(=O)C1Cc2[nH]c3ccccc3c2C(C)C1C` (centres undefined), for which the TGI stood at 30.7 µM.
`Cn1cc2ccccc2c1-c1nc(N)nc(F)n1` had a TGI above 100 µM.
Still for that read-out and setting: next, `O=C1C(Cl)=C(N2CCN(C3=C(Cl)C(=O)c4ccccc4C3=O)CC2)C(=O)c2ccccc21`: 2.87 µM.
In the case of `COc1ccc(-c2cc(-c3ccco3)c(C#N)c(=S)n2C2OC(COC(C)=O)C(OC(C)=O)C(OC(C)=O)C2OC(C)=O)cc1` (centres undefined), the TGI was determined as 17.7 µM.
`COc1cc(/C=C2/C(=O)N(C(=O)c3ccccc3O)N=C2C)cc(OC)c1OC` registered a TGI above 100 µM.
As for `CCCCCCCCCCCCCCCCCCNc1ccn(C2OC(COP(=O)(O)OCC3OC(n4ccc(NC(=O)CCCCCCCCCCCCCCCCC)nc4=O)C(OC(C)=O)C3OC(C)=O)C(OC(C)=O)C2OC(C)=O)c(=O)n1` (centres undefined), the TGI was above 100 µM.
Regarding `COc1cccc(-c2cc(=O)c3ccccc3o2)c1N`, the TGI is above 100 µM.
Still for that read-out and setting: next, `Cc1ccc(-c2c(C#N)c(-c3ccccc3)n(NS(=O)(=O)c3ccccc3)c(=O)c2C#N)cc1`: above 100 µM; `COc1ccc(N2C(=O)C3c4[nH]c5ccc(OCc6ccccc6)cc5c4C4CCC(C(C)(C)C)CC4C3C2=O)cc1` (centres undefined): above 100 µM; `COc1ccc(C(C#N)NNC(=O)c2ccccc2O)cc1OC` (centres undefined): 46.7 µM.
On to `O=c1[nH]n2c(=O)cc[nH]c2c1-c1nnns1`, for which the TGI was above 100 µM.
In turn, `Cc1c(-c2nc3ccccc3[nH]2)c(=O)n(-c2ccccc2)n1C` yielded a TGI above 100 µM.
Regarding `CC(CN1c2ccccc2Sc2ccccc21)N(C)C` (centres undefined), the TGI was found to be 33.9 µM.
The same measure, in the same setting: next, `N.N.N.O=[N+]([O-])[O-].O=[N+]([O-])[O-].O=[N+]([O-])[O-].O=[N+]([O-])[O-].[Co+3]`: above 100 µM.
The molecule `COc1cc(O)c(/C=N/N=C(\N)NO)c(OC)c1` yielded a TGI above 10 µM.
On the same count and under the same terms, in the case of `CCCCN1C(=O)CC2[C@@H]3CCc4cc(OC(C)=O)ccc4C3CC[C@]2(C)C1=O` (some centres undefined) it was above 10 µM.
